Reference: patent US7501513B2, “Immunosuppressive effects of pteridine derivatives” (4 AZA Bioscience NV, priority 2003, dated 2009)
pIC50: −log10 of the molar value.

system: Peripheral blood mononuclear cells; assay: Mixed lymphocyte reaction (MLR) test; type: cell-based, human; conditions: Homo sapiens, PBMC; Table 3; 50% suppression of the MLR
Procedure: Pteridine derivatives were first dissolved (10 mM) in dimethylsulfoxide (hereinafter referred as DMSO) and further diluted in culture medium before use for the following in vitro experiments. The commercially available culture medium consisted of RPMI-1640+10% foetal calf serum (FCS). Some pteridine derivatives described the previous examples were tested in the following lymphocyte activation tests:
(§1) Peripheral blood mononuclear cells (hereinafter referred as PBMC) were isolated from heparinized peripheral blood by density gradient centrifugation over Lymphoprep (Nycomed, Maorstua, Norway). Allogeneic PBMC or Eppstein-Barr Virus-transformed human B cells [commercially available under the trade name RPMI1788 (ATCC name CCL156)] which strongly express B7-1 and B7-2 antigens were used as stimulator cells after irradiation with 30 Gy. MLR was performed in triplicate wells. After 5 days incubation at 37° C., 1 μCi [^3H]-thymidine was added to each cup. After a further 16 hours incubation, cells were harvested and counted in a β-counter. Inhibition of proliferation by a compound (drug) described in some of the previous examples was counted using the formula:
(§2) [formula] wherein cpm is the thymidine count per minute. The MLR assay is regarded by those skilled in the art as an in vitro analogue of the transplant rejection since it is based on the recognition of allogeneic major histocompatibility antigens on the stimulator leukocytes, by responding lymphocytes. Assays for CD3 and CD 28
Pteridine derivatives were first dissolved (10 mM) in dimethylsulfoxide (hereinafter referred as DMSO) and further diluted in culture medium before use for the following in vitro experiments. The commercially available culture medium consisted of RPMI-1640+10% foetal calf serum (FCS). Some pteridine derivatives described in the previous examples (as indicated in table 3 below) were tested in the following mixed lymphocyte reaction (MLR) assay.
as §1, with “CCL156)]which” for “CCL156)] which”
as §2, with “lymphocytes.” for “lymphocytes. Assays for CD3 and CD 28”

Question: Nc1cccc(-c2cnc3nc(N)nc(N4CCOCC4)c3n2)c1 [Example 75, 2-amino-4-morpholino-6-(3-aminophenyl)pteridine] was tested. Which pIC50 did it give?
Answer: Its pIC50 is 5.39.

Question: Nc1nc(N2CCOCC2)c2nc(-c3ccc(NC(=O)c4ccccc4)cc3)cnc2n1 [Example 76, 2-amino-4-morpholino-6-(4-benzoylaminophenyl)pteridine] was tested. Which pIC50 did it give?
Answer: Its pIC50 is 5.68.

Question: How did the pIC50 turn out when Nc1nc(N2CCOCC2)c2nc(-c3ccc(NC(=O)COc4ccccc4)cc3)cnc2n1 [Example 77, 2-amino-4-morpholino-6-(4-phenoxyacetylaminophenyl)pteridine] was run?
Answer: The pIC50 was 5.60.

Question: How did the pIC50 turn out when CCC(=O)Nc1ccc(-c2cnc3nc(N)nc(N4CCOCC4)c3n2)cc1 [Example 78, 2-amino-4-morpholino-6-(4-propionylaminophenyl)pteridine] was run?
Answer: The pIC50 was 5.19.

Question: How did the pIC50 turn out when Nc1nc(N2CCOCC2)c2nc(-c3ccc(NC(=O)C4CCCCC4)cc3)cnc2n1 [Example 80, 2-amino-4-morpholino-6-(4-cyclohexanoylaminophenyl)pteridine] was run?
Answer: Its pIC50 is 5.39.

Question: How did the pIC50 turn out when Nc1nc(N2CCOCC2)c2nc(-c3ccc(NC(=O)c4ccncc4)cc3)cnc2n1 [Example 83, 2-amino-4-morpholino-6-(4-isonicotinoylaminophenyl)pteridine] was run?
Answer: Its pIC50 is 5.41.

Question: With Nc1nc(N2CCOCC2)c2nc(-c3cccc(NC(=O)c4ccccc4)c3)cnc2n1 [Example 88, 2-amino-4-morpholino-6-(3-benzoylaminophenyl)pteridine] as the compound, how does the pIC50 read?
Answer: The pIC50 was 5.31.

Question: Nc1nc(N2CCOCC2)c2nc(-c3cccc(NS(=O)(=O)c4ccccc4)c3)cnc2n1 [Example 89, 2-amino-4-morpholino-6-(3-benzensulfonylaminophenyl)pteridine] was tested. Which pIC50 did it give?
Answer: The pIC50 was 6.10.

Question: How did the pIC50 turn out when Nc1nc(N2CCOCC2)c2nc(-c3cccc(NC(=O)COc4ccccc4)c3)cnc2n1 [Example 90, 2-amino-4-morpholino-6-(3-phenoxyacetylaminophenyl)pteridine] was run?
Answer: The pIC50 was 5.00.

Question: Nc1nc(N2CCOCC2)c2nc(-c3cccc(NC(=O)c4ccncc4)c3)cnc2n1 [Example 91, 2-amino-4-morpholino-6-(3-isonicotinoylaminophenyl)pteridine] was tested. Which pIC50 did it give?
Answer: The pIC50 was 5.00.

Question: Nc1nc(N2CCOCC2)c2nc(-c3cccc(NC(=O)C4CCCCC4)c3)cnc2n1 [Example 92, 2-amino-4-morpholino-6-(3-cyclohexanoylaminophenyl)pteridine] was tested. Which pIC50 did it give?
Answer: The pIC50 was 5.54.

Question: How did the pIC50 turn out when Nc1nc(N2CCOCC2)c2nc(-c3cccc(NC(=O)COCc4ccccc4)c3)cnc2n1 [Example 96, 2-amino-4-morpholino-6-(3-benzyloxyacetylaminophenyl)pteridine] was run?
Answer: The pIC50 was 5.39.

Question: With COCCOc1ccc(-c2cnc3nc(N)nc(N4CCOCC4)c3n2)cc1 [Example 110, 2-amino-4-morpholino-6-(4-(2-methoxyethoxy)-phenyl)pteridine] as the compound, how does the pIC50 read?
Answer: Its pIC50 is 5.27.

same assay, conditions: Table 3; 50% suppression of the MLR

Question: How did the pIC50 turn out when COc1ccc(-c2cnc3nc(NCc4cccs4)nc(NCc4cccs4)c3n2)cc1OC [Example 68, 2,4-di-(thienyl-2-methylamino)-6-(3,4-dimethoxy-Phenyl) pteridine] was run?
Answer: Its pIC50 is 6.10.

Question: CC(=O)Nc1cccc(-c2cnc3nc(N)nc(N4CCOCC4)c3n2)c1 [Example 73, 2-amino-4-morpholino-6-(3-acetanilide)pteridine] was tested. Which pIC50 did it give?
Answer: Its pIC50 is 5.19.

Question: How did the pIC50 turn out when Nc1nc(N2CCOCC2)c2nc(-c3ccc(NC(=O)c4ccco4)cc3)cnc2n1 [Example 79, 2-amino-4-morpholino-6-(4-furoylaminophenyl)pteridine] was run?
Answer: Its pIC50 is 5.11.

Question: Nc1nc(N2CCOCC2)c2nc(-c3ccc(NC(=O)c4cccc5ccccc45)cc3)cnc2n1 [Example 84, 2-amino-4-morpholino-6-(4-naphtoylaminophenyl)pteridine] was tested. Which pIC50 did it give?
Answer: The pIC50 was 5.40.

Question: CC(C)(C)OC(=O)N[C@H](Cc1ccccc1)C(=O)Nc1cccc(-c2cnc3nc(N)nc(N4CCOCC4)c3n2)c1 [Example 99, 2-amino-4-morpholino-6-[3-Boc-(D)-phenylalanine-aminophenyl]pteridine] was tested. Which pIC50 did it give?
Answer: Its pIC50 is 5.39.

system: human TNF-α; assay: TNF-α assay: suppression of TNF-α production by LPS-stimulated PBMC (ELISA); type: cell-based; conditions: Homo sapiens, PBMC; Table 2; LPS 1 μg/ml, 72 hours
Procedure: (§3) Peripheral blood mononuclear cells (herein referred as PBMC), in response to stimulation by lipopolysaccharide (LPS), a gram-negative bacterial endotoxin, produce various […], in particular human TNF-α and IL-1 β. Inhibition of the activation of PBMC can therefore be measured by the level of suppression of the production of TNF-α or IL-1 β by PBMC in response to stimulation by LPS.
(§4) Such inhibition measurement was performed as follows: PBMC were isolated from heparinized peripheral blood by density gradient centrifugation over Lymphoprep (commercially available from Nycomed, Norway). LPS was then added to the PMBC suspension in complete medium (10^6 cells/ml) at a final concentration of 1 μg/ml. The pteridine derivative to be tested was added at different concentrations (0.1 μM, 1 μM and 10 μM) and the cells were incubated at 37° C. for 72 hours in 5% CO2. The supernatants were collected, then TNF-α and/or IL-1 β concentrations were measured with respectively an anti-TNF-α antibody or an anti-IL-1 β antibody in a sandwich ELISA (Duo Set ELISA human TNFα, commercially available from R&D Systems, United Kingdom). The calorimetric reading of the ELISA was measured by a Multiskan RC plate reader (commercially available from ThermoLabsystems, Finland) at 450 nm (reference wavelength: 690 nm). Data analysis was performed with Ascent software 2.6. (also from ThermoLabsystems, Finland): a standard curve (recombinant human TNFα) was drawn and the amount (pg/ml) of each sample on the standard curve was determined.
The % suppression of human TNFα production or human IL-1 β by the pteridine derivatives of the invention (drugs) was calculated using the formula: […]
as §3, with “(hereinafter LPS),” for “(LPS),”, “TNF-α.” for “TNF-α and IL-1 β.”, “TNF-α” for “TNF-α or IL-1 β”
as §4, with “TNF-α” for “TNF-α and/or IL-1 β”, “with” for “with respectively”, “anti-TNF-α” for “anti-TNF-α antibody or an anti-IL-1 β”, “TNF-α,” for “TNFα,”, “colorimetric” for “calorimetric”
The % suppression of human TNFα production by the pteridine derivatives of the invention (drugs) was calculated using the formula: […]

Question: With CCOc1nc(N)nc2ncc(-c3ccc(OC)cc3)nc12 [Example 13, 2-amino-6-(p-methoxyphenyl)-4-ethoxy-pteridine] as the compound, how does the pIC50 read?
Answer: The pIC50 was 5.35.

Question: With CCOc1nc(N)nc2ncc(-c3ccccc3OC)nc12 [Example 14, 2-amino-6-(o-methoxyphenyl)-4-ethoxy-pteridine] as the compound, how does the pIC50 read?
Answer: Its pIC50 is less than 5.00.

Question: CC(C)Oc1nc(N)nc2ncc(-c3ccc(C(F)(F)F)cc3)nc12 [Example 36, 2-amino-6-(p-trifluoromethylphenyl)-4-isopropoxypteridine] was tested. Which pIC50 did it give?
Answer: The pIC50 was 5.04.

Question: With CC(C)Oc1nc(N)nc2ncc(-c3ccc(F)c(F)c3)nc12 [Example 37, 2-amino-6-(3,4-difluorophenyl)-4-isopropoxypteridine] as the compound, how does the pIC50 read?
Answer: The pIC50 was 5.18.

Question: CCOc1ccc(-c2cnc3nc(N)nc(OC(C)C)c3n2)cc1 [Example 39, 2-amino-6-(p-ethoxyphenyl)-4-isopropoxypteridine] was tested. Which pIC50 did it give?
Answer: The pIC50 was less than 5.00.

Question: With CC(C)Oc1nc(N)nc2ncc(-c3ccc(C#N)cc3)nc12 [Example 42, 2-amino-6-(p-cyanophenyl)-4-isopropoxypteridine] as the compound, how does the pIC50 read?
Answer: The pIC50 was 5.20.

same assay, conditions: Table 2; LPS 1 μg/ml, 72 hours

Question: With CC(C)Oc1nc(N)nc2c1ncc[n+]2[O-] [Example 10, 2-amino-4-isopropoxypteridine-N^8-oxide] as the compound, how does the pIC50 read?
Answer: The pIC50 was 5.40.

Question: COc1ccc(-c2cnc3nc(N)nc(OC(C)C)c3n2)cc1 [Example 38] was tested. Which pIC50 did it give?
Answer: Its pIC50 is 5.21.

same assay, conditions: Table 4; LPS 1 μg/ml, 72 hours

Question: CCOC(=O)CCC(=O)Nc1cccc(-c2cnc3nc(N)nc(N4CCOCC4)c3n2)c1 [Example 94, 2-amino-4-morpholino-6-(3-ethylsuccinylaminophenyl)pteridine] was tested. Which pIC50 did it give?
Answer: Its pIC50 is 5.26.

Question: CCOC(=O)CCCOc1ccc(-c2cnc3nc(N)nc(N4CCOCC4)c3n2)cc1 [Example 108, 2-amino-4-morpholino-6-(4-phenoxy-butyric acid ethyl ester) pteridine] was tested. Which pIC50 did it give?
Answer: Its pIC50 is 6.05.

Question: CCOC(=O)COc1ccc(-c2cnc3nc(N)nc(N4CCOCC4)c3n2)cc1 [Example 109, 2-amino-4-morpholino-6-(4-phenoxy-acetic acid ethyl ester) pteridine] was tested. Which pIC50 did it give?
Answer: The pIC50 was 6.22.

Question: How did the pIC50 turn out when COc1ccc(-c2cnc3nc(N)nc(NCc4ccccc4)c3n2)cc1OC [Example 113] was run?
Answer: Its pIC50 is 5.19.

Question: How did the pIC50 turn out when COc1ccc(-c2cnc3nc(N)nc(N4CC=CCC4)c3n2)cc1OC [Example 117] was run?
Answer: The pIC50 was 6.30.
